Earlier results in patent US6086919A, “Pharmaceutical composition containing the ace inhibitor ramipril and a dihydropyridine compound” (priority 1994, dated 2000).

Tests used:
[1] = test system: vasodilatory effect; conditions: in words
[2] = test system: hypertensive patients; patients with clinical signs of congestive heart failure

CCOC(=O)C1=C(C)NC(C)=C(C(=O)OC)[C@@H]1c1cccc(Cl)c1Cl [S form]
Vasodilatory effect compared with the R form [1]: stronger than the vasodilatory effect of the R form

CCOC(=O)C1=C(C)NC(C)=C(C(=O)OC)C1c1cccc(Cl)c1Cl (centres unmarked) [felodipine]
Light stability (when exposed to light): decomposed when exposed to light

CCOC(=O)[C@H](CCc1ccccc1)N[C@@H](C)C(=O)N1[C@H](C(=O)O)C[C@@H]2CCC[C@@H]21 [ramipril]
Sensitivity of the substance (stability): sensitive to high temperature, moisture or compression
Mortality ([2]; clinical signs of congestive heart failure after acute myocardial infarction): reduce mortality
Reduction of blood pressure and peripheral arterial resistance ([2]; hypertensive patients): reduction in peripheral arterial resistance and thus a reduction of the blood pressure without a compensatory rise in heart rate
